Experimental data from ChEMBL document CHEMBL1201862, “PubChem BioAssay data set” (2004).
Counter-ions that a name gives are not always drawn. Calls of active or inactive are those of the source.

Columns and labels:
[1] = inhibitors of intracellular T. cruzi replication, confirmation, NIH3T3 host cells, beta-gal luminescence (AID 2044); type: functional, cell-based;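 note: intracellular parasites grown in NIH/3T3 mouse fibroblasts as host cells; luminescent beta-galactosidase reporter signal from transgenic T. cruzi replicating inside host cells; inhibitors lower the luminescence signal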
[2] = target: T1, Calpain-2 catalytic subunit (Sus scrofa, UniProt P43367); assay: pig calpain II inhibitor potency, dose response, biochemical, fluorogenic peptide substrate (AID 1420); type: functional
T1 sequence (P43367 whole entry): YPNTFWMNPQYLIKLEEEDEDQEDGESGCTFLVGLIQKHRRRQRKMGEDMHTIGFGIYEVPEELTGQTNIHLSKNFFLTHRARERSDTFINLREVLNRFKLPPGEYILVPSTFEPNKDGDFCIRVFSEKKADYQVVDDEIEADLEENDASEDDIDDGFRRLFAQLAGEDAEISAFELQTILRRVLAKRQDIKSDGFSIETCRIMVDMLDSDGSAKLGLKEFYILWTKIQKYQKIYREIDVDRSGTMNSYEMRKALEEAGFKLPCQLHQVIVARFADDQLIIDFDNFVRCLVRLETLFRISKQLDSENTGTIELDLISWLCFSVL

[3] = cytotoxicity toward NIH3T3 fibroblasts, dose response, counter-screen, cell-based, ATP luminescence, mouse fibroblasts (AID 2010); type: functional;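 note: cells exposed to compound for about 90 hours before reading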
[4] = target: ATP-dependent translocase ABCB1 (Homo sapiens, UniProt P08183); assay: ABCB1 efflux pump inhibitor potency, dose response, Jurkat-DNR cells, JC-1, flow cytometry (AID 1689); type: functional
Chain of ATP-dependent translocase ABCB1 (P08183 whole entry): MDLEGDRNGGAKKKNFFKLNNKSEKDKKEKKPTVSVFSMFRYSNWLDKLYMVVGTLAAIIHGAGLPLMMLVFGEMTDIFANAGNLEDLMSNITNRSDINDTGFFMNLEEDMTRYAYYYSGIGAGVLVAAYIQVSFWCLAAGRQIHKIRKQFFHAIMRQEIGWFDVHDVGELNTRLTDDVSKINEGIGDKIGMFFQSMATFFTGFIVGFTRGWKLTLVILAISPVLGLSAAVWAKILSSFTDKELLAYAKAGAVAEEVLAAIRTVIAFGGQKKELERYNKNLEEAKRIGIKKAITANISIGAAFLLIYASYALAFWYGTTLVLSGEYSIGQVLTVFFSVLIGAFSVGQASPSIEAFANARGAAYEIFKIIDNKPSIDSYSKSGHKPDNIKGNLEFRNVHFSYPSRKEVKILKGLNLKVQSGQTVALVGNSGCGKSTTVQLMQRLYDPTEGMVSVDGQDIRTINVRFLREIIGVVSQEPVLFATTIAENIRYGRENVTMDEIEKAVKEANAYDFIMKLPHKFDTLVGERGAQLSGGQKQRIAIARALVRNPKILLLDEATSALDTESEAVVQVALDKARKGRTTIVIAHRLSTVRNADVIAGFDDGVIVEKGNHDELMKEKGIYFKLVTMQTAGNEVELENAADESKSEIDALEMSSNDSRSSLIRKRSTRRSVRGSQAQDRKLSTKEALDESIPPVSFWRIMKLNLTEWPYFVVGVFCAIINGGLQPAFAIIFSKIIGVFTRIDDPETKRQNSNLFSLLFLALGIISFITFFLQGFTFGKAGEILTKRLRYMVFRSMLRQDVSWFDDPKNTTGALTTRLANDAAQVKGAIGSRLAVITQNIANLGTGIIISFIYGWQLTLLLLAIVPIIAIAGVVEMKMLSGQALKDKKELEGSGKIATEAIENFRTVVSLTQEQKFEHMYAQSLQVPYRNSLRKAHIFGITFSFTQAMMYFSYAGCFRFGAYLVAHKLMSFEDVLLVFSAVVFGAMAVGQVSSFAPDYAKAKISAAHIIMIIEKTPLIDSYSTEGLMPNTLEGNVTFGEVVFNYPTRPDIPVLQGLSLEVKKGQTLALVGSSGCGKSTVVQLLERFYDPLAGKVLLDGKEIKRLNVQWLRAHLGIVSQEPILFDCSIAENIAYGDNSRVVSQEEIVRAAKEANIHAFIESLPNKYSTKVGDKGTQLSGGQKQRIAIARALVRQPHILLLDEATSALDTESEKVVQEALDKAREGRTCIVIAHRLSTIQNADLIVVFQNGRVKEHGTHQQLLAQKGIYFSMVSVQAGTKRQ

[5] = target: Broad substrate specificity ATP-binding cassette transporter ABCG2 (Homo sapiens, UniProt Q9UNQ0); assay: ABCG2 efflux pump inhibitors, dose response, Ig-MXP3 cells, flow cytometry (AID 1690); type: functional
Chain of Broad substrate specificity ATP-binding cassette transporter ABCG2 (Q9UNQ0 whole entry): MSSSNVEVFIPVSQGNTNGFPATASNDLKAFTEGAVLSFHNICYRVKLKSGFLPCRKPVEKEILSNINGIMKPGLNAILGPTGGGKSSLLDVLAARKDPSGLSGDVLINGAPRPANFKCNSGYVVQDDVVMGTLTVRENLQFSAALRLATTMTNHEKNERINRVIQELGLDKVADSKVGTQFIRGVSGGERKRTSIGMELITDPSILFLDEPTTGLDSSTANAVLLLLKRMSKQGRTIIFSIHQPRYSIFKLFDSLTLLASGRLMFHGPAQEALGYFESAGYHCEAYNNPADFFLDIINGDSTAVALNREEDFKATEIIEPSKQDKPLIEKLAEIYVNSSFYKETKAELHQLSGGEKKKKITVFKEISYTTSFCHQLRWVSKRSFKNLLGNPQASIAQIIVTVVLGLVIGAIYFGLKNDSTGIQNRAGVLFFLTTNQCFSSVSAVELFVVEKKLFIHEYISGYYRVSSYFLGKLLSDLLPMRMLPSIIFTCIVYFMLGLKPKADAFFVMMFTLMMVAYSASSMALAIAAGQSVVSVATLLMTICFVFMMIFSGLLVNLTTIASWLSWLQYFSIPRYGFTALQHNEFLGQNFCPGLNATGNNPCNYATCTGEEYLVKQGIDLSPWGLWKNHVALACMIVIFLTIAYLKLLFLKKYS

[6] = HepG2 cell cytotoxicity, dose response, cytotoxicity control, ATP luminescence, cherry-pick, set 6 (AID 1053125); type: functional, cell-based
[7] = cells
[8] = cells; conditions: HEK293
[9] = Inhibition of T. cruzi Tulahuen strain amastigotes in L-6 muscle cells Measured in Cell-Based and Microorganism Combination System Using Plate Reader - 2138-03_Inhibitor_Dose_CherryPick_Activity.; type: functional; conditions: Rattus norvegicus, L6
[10] = cytotoxicity in L-6 rat myocytes, dose response, cytotoxicity control, cell-based, plate reader, cherry-pick (AID 651896); type: functional
[11] = Inhibition of Plasmodium falciparum NF54 Measured in Cell-Based System Using Plate Reader - 2138-11_Inhibitor_Dose_CherryPick_Activity.; type: functional
[12] = L. donovani amastigote growth inhibition, dose response, axenic amastigotes, plate reader, cherry pick (AID 651891); type: functional, cell-based; conditions: Leishmania donovani
[13] = NIH/3T3 fibroblast cytotoxicity, dose response, cytotoxicity control for T. cruzi growth inhibitor project, cell-based, cherry-pick samples, set 2 (AID 651817); type: functional; conditions: NIH3T3
[14] = intracellular Trypanosoma cruzi inhibitors in host cells – cell-based, plate reader, cherry-pick samples, set 3, dose response (AID 651818); type: functional;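 note: compounds incubated with infected cells for about four days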
[15] = T. b. rhodesiense proliferation inhibition, dose response, STIB900 strain, plate reader, cherry pick (AID 651893); type: functional, cell-based; conditions: Trypanosoma brucei
[16] = T. cruzi growth inhibition in host cells, dose response, cell-based, plate reader, dry powder, set 2 (AID 652275); type: functional
[17] = growth inhibition of intracellular T. cruzi, dose response, cell-based, plate reader, dry powder samples (AID 651845); type: functional
[18] = T. cruzi intracellular amastigote growth inhibition, dose response, imaging, CA-I/72 strain, bovine embryo skeletal muscle, dry powder (AID 651885); type: functional, cell-based
[19] = target: NAD-dependent protein deacylase sirtuin-5, mitochondrial (Homo sapiens, UniProt Q9NXA8); assay: SIRT5 deacylase inhibitors, dose response, biochemical, fluorescence imaging, cherry-pick, set 6 (AID 720597)
Chain of NAD-dependent protein deacylase sirtuin-5, mitochondrial (Q9NXA8 whole entry, the tested form may be a part): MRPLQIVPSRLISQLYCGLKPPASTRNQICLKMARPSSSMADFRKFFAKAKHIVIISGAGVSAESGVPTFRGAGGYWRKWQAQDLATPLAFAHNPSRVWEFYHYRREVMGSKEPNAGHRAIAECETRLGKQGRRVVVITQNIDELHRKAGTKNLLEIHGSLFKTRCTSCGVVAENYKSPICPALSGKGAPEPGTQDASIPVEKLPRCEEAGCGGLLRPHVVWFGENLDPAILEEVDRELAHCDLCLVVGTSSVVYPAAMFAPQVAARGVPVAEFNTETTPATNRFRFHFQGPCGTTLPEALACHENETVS

[20] = target: T2, Fibrinogen beta chain (Homo sapiens, UniProt P02675); assay: Fluorescence polarization-based biochemical high throughput dose response assay to identify inhibitors that disrupt the binding of a cyclic peptide (Tn6) to the fibrin proteolytic product D-Dimer and fragment E complex [DD(E )].
T2 sequence (P02675 whole entry, the tested form may be a part): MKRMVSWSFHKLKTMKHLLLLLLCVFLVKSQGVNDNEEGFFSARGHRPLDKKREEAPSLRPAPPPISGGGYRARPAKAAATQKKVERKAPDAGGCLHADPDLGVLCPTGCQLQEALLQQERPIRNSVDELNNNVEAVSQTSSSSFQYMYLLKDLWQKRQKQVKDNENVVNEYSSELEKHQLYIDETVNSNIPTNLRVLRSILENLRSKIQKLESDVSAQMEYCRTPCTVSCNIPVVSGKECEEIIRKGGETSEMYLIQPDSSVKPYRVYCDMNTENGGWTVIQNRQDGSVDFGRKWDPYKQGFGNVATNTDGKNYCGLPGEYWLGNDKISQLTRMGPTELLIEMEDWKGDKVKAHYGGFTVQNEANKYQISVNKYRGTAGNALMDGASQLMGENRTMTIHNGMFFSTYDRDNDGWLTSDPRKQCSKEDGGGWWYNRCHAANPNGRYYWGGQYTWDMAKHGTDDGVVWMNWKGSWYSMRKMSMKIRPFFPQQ

[21] = target: T2, Fibrinogen beta chain; assay: Fluorescence polarization-based biochemical high throughput dose response assay to identify inhibitors that disrupt the binding of a cyclic peptide (Tn7) to the fibrin proteolytic product D-Dimer and fragment E complex [DD(E )].
[22] = Late stage assay provider results from the probe development effort to identify inhibitors of the Plasmodium falciparum M18 Aspartyl Aminopeptidase (M18AAP): radiolabel-based cell-based dose response assay to identify compounds that inhibit P. falciparum growth in RBCs, Set 2..; type: functional
[23] = A Cell-Based Confirmatory Screen for Compounds that Inhibit VEEV, TC-83 (5).; type: functional
[24] = inhibitors of non-replicating M. tuberculosis, dose response, luciferase, dry powder (AID 651619); type: functional; conditions: Mycobacterium tuberculosis
[25] = inhibitors of non-replicating M. tuberculosis, dose response, luciferase, dry powder (AID 651620); type: functional; conditions: Mycobacterium tuberculosis
[26] = growth inhibition of replicating M. tuberculosis, dose response, counter-screen, dry powder, IC90 (AID 651617); type: functional; conditions: Mycobacterium tuberculosis
[27] = target: RNA-editing ligase 1, mitochondrial (Trypanosoma brucei brucei, UniProt P86926); assay: TbREL1 ligase inhibitors, dose response, biochemical, fluorescence, Trypanosoma brucei (AID 1117295); type: functional
Chain of RNA-editing ligase 1, mitochondrial (P86926 whole entry): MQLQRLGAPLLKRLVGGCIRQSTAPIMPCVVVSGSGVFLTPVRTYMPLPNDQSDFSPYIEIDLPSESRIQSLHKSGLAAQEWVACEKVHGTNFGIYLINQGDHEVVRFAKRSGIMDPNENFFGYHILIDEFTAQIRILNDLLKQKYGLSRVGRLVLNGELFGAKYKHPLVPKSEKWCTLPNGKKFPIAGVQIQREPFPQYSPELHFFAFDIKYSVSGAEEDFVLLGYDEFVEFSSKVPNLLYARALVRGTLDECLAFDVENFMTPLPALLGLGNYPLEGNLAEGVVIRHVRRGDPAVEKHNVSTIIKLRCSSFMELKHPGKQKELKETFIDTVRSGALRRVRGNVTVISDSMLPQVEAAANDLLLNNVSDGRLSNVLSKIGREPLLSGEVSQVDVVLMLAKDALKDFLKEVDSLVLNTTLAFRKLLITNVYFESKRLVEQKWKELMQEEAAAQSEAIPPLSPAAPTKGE

[28] = target: T3, Low molecular weight phosphotyrosine protein phosphatase (Homo sapiens, UniProt P24666); assay: LMPTP phosphatase inhibitors, dose response, biochemical, OMFP substrate, fluorescence intensity, set 2 (AID 743307); type: functional
T3 sequence (P24666 whole entry): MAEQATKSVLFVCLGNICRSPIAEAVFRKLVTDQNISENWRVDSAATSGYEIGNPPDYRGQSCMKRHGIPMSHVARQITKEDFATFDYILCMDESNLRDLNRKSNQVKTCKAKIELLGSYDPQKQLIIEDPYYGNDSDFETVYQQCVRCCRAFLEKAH

[29] = target: T3, Low molecular weight phosphotyrosine protein phosphatase; assay: LMPTP phosphatase inhibitors, colorimetric pNPP readout, dose response, orthogonal assay, biochemical, absorbance, pNPP substrate, LMPTP-A isoform, set 2 (AID 743308); type: functional
[30] = HeLa 2N DNA content increase, dose response, cell-based, IC50 (AID 1117349); type: functional
[31] = Dose-response inhibition of insulin secretion in a rat insulinoma line at 5 mM glucose (AID 1117331); type: functional, cell-based; conditions: INS-1E
[32] = cells; type: functional, cell-based; conditions: INS-1E
[33] = HeLa 4N DNA content increase, dose response, cell-based, IC50 (AID 1117351); type: functional

Structure (SMILES): CCOC(=O)c1c(NC(=O)CSc2ncccn2)sc2c1CCN(Cc1ccccc1)C2
- EC50 [1]: 3.07 µM (active)
- IC50 [2]: 5.71 µM (not active)
- EC50 [3]: > 60 µM (not active)
- EC50 [4]: 9.93 µM (active)
- EC50 [5]: 1.88 µM (active)
- AC50 [6]: > 52 µM (inactive)
- AC50 [7]: > 70 µM (inactive)
- AC50 [8]: > 52 µM (inactive)

Structure (SMILES): C[C@@H]1CN([C@H](C)CO)C(=O)c2cccc(NC(=O)c3ccncc3)c2O[C@H]1CN(C)Cc1ccc2c(c1)OCO2
- IC50 [9]: 5.79 µM (inactive)
- IC50 [10]: > 100 µM (inactive)
- IC50 [11]: 5.79 µM (inactive)
- IC50 [12]: > 100 µM (inactive)
- AC50 [13]: 39 µM (inactive)
- AC50 [14]: 0.08 µM (active)
- IC50 [15]: 6.86 µM (inactive)
- AC50 [16]: 0.0187 µM (active)
- AC50 [17]: 0.311 µM (active)
- IC50 [18]: 0.049 µM (active)

Structure (SMILES): COc1ccc(S(=O)(=O)Nc2ccc3c(c2)C(=O)N([C@@H](C)CO)C[C@@H](C)[C@H](CN(C)S(=O)(=O)c2ccccc2)OCCCC[C@H](C)O3)cc1
- AC50 [19]: > 30 µM (inactive)

Structure (SMILES): CCOC(=O)C1=Nc2cccc3c(O)ccc1c23
- IC50 [20]: 22.3 µM (inactive)
- IC50 [21]: > 9.25 µM (active)

Structure (SMILES): COc1cc(Br)c(CCNc2c3ccccc3nc3ccccc23)cc1OC
- IC50 [22]: 0.3 µM (active)

Structure (SMILES): CCN1CCN(Cc2nc3ccc(I)cc3c(=O)n2-c2ccccc2)CC1
- IC50 [23]: 17.1 µM (active)

Structure (SMILES): Cc1ccc(-c2nnc(SCc3ccccn3)o2)cc1
- IC90 [24]: 4 µM (active)
- IC90 [25]: 4 µM (active)
- IC90 [26]: 62 µM (active)

Structure (SMILES): COC(=O)C1=C(C)N(Cc2ccccc2C(F)(F)F)C(NCc2ccc(OC)cc2)=NC1c1ccc(Cl)cc1 (stereo not drawn)
- IC50 [27]: > 96.6 µM (inactive)

Structure (SMILES): c1ccc(-c2nc(NC3CC3)c3ccccc3n2)cc1
- IC50 [28]: 48.1 µM (inactive)
- IC50 [29]: > 80 µM (inactive)

Structure (SMILES): CCN(CCCCOC(=O)c1ccc(OC)c(OC)c1)C(C)Cc1ccc(OC)cc1 (stereo not drawn) [MEBEVERINE HYDROCHLORIDE]
- IC50 [30]: > 10 µM (inactive)
- IC50 [31]: 1.95 µM (active)
- IC50 [32]: > 33.3 µM (inactive)
- IC50 [33]: > 10 µM (inactive)
